The term melting point denotes the temperature, or range, at which the solid turns liquid.

For data set [1], the system named is Botryotinia fuckeliana (Botrytis cinerea). As to the kind of experiment: Botryotinia fuckeliana (Botrytis cinerea) / liquid culture (Gray mould). In kind it is cell-based. The conditions noted are these: growth inhibition photometrically 3-4 days after application, compared to untreated control.
Data set [2] has as its system Glomerella lagenarium (Colletotrichum lagenarium). As to the kind of experiment: Glomerella lagenarium (Colletotrichum lagenarium) / liquid culture (Anthracnose). The data set is classed as cell-based. The settings on record: Colletotrichum orbiculare, growth inhibition photometrically 3-4 days after application, compared to untreated control.
Data set [3] concerns Fusarium culmorum. As to the kind of experiment: microbe, parasite or virus in culture. The conditions noted are these: read-out: control of Fusarium culmorum. The data set is classed as cell-based.
In data set [4] the test system is Monographella nivalis (Microdochium nivale). As to the kind of experiment: Monographella nivalis (Microdochium nivale) / liquid culture (foot rot cereals). In kind it is cell-based. The conditions noted are these: 96 h, growth inhibition photometrically 4-5 days after application, compared to untreated control.

As for `Cc1cccn2ncc(C3=NC(C)(C)C(=O)c4cc(F)ccc43)c12` [Compound E-75, 6-fluoro-3,3-dimethyl-1-(4-methylpyrazolo[1,5-a]pyridin-3-yl)isoquinolin-4-one], the melting point fell in the range of 180 to 183 °C. In addition, the inhibition of growth at 20 ppm in data set [1] was ≥ 80%.
Taken in the same sequence, the figures for `Cc1cccn2ncc(C3=NC(C)(C)C(=O)c4ccccc43)c12` [Compound E-68, 3,3-dimethyl-1-(4-methylpyrazolo[1,5-a]pyridin-3-yl)isoquinolin-4-one] were 140 to 141 °C and ≥ 80%.
`CC1(C)N=C(c2cnc3c(F)cccn23)c2cccc(F)c2C1O` (centres unmarked) [Compound E-14, 5-fluoro-1-(8-fluoroimidazo[1,2-a]pyridin-3-yl)-3,3-dimethyl-4H-isoquinolin-4-ol] displayed a melting point of 219 °C. Also, the inhibition of growth at 20 ppm in data set [2] was ≥ 80%.
For the molecule `CC1(C)N=C(c2cnc3ccccn23)c2cc(F)ccc2C1(C)C` [Compound E-2, 7-fluoro-1-imidazo[1,2-a]pyridin-3-yl-3,3,4,4-tetramethyl-isoquinoline], the inhibition of growth at 20 ppm in data set [2] was ≥ 80%.
For the molecule `CC1(C)N=C(c2cnc3c(Cl)cccn23)c2cccc(F)c2C1(C)C` [Compound E-32, 1-(8-chloroimidazo[1,2-a]pyridin-3-yl)-5-fluoro-3,3,4,4-tetramethyl-isoquinoline], the melting point was 167 to 168 °C. Moreover, the inhibition of growth at 20 ppm in data set [1] was ≥ 80%. For the same molecule, the inhibition of growth at 20 ppm in data set [3] was ≥ 80%. Besides, the inhibition of growth at 20 ppm in data set [2] was ≥ 80%.
On to `CC1(C)N=C(c2cnn3cccc(Br)c23)c2ccccc2C1=O`, for which the melting point fell in the range of 148 to 151 °C.
As for `CC1(C)Cc2c(F)cccc2C(c2cnc3c(F)cccn23)=N1` [Compound E-10, 5-fluoro-1-(8-fluoroimidazo[1,2-a]pyridin-3-yl)-3,3-dimethyl-4H-isoquinoline], the inhibition of growth at 20 ppm in data set [1] and in data set [2] was ≥ 80% in each case.
`CC1(C)N=C(c2cnc3c(Br)cccn23)c2cccc(F)c2C1O` (centres unmarked) had a melting point of 204 to 205 °C.
Same read-out and setting: to `CC1(C)N=C(c2cnc3c(Br)cccn23)c2ccccc2C1(F)F` belongs 173 °C.
Take `CC1(C)Cc2c(Br)cccc2C(c2cnn3ccccc23)=N1` [Compound E-60, 5-bromo-3,3-dimethyl-1-pyrazolo[1,5-a]pyridin-3-yl-4H-isoquinoline]: in data set [1], the inhibition of growth at 20 ppm is ≥ 80%.
Molecule `CC1(C)N=C(c2cnc3c(Br)cccn23)c2ccccc2C1=O` had a melting point of 204 to 205 °C.
On to `CC1(C)N=C(c2cnc3c(O)cccn23)c2cccc(F)c2C1(C)C` [Compound E-27, 3-(5-fluoro-3,3,4,4-tetramethyl-1-isoquinolyl)imidazo[1,2-a]pyridin-8-ol], for which the melting point fell in the range of 271 to 272 °C. For the same molecule, the inhibition of growth at 20 ppm in data set [1] was ≥ 80%. In addition, the inhibition of growth at 20 ppm in data set [2] was ≥ 80%.
Molecule `Cc1ccc2c(C3=NC(C)(C)C(F)(F)c4ccccc43)cnn2c1C` returned a melting point of 160 to 161 °C.
On the same count and under the same terms, as for `CC1(C)N=C(c2cnc3c(F)cccn23)c2cccc(F)c2C1=O`, the figure is 160 to 161 °C.
`CC1(C)Cc2c(Cl)cccc2C(c2cnc3ccccn23)=N1` [Compound E-3, 5-chloro-1-imidazo[1,2-a]pyridin-3-yl-3,3-dimethyl-4H-isoquinoline]: the inhibition of growth at 20 ppm in data set [2] was ≥ 80%.
In the case of `Cc1nn2ccccc2c1C1=NC(C)(C)C(C)(C)c2c(F)cccc21` [Compound E-62, 5-fluoro-3,3,4,4-tetramethyl-1-(2-methylpyrazolo[1,5-a]pyridin-3-yl)isoquinoline], the inhibition of growth at 20 ppm in data set [1] and in data set [2] was ≥ 80% throughout.
For `CC1(C)N=C(c2cnc3c(Br)cccn23)c2cccc(F)c2C1=O`, the melting point is 146 to 147 °C.
In turn, `CC1(C)Cc2c(Cl)cccc2C(c2cnc3c(F)cccn23)=N1` [Compound E-11, 5-chloro-1-(8-fluoroimidazo[1,2-a]pyridin-3-yl)-3,3-dimethyl-4H-isoquinoline] displayed a melting point of 122 to 123 °C. Besides, the inhibition of growth at 20 ppm in data set [1] is ≥ 80%. Besides, in data set [2], the inhibition of growth at 20 ppm was ≥ 80%.
The molecule `CC1(C)Cc2ccccc2C(c2cnc3cc(I)ccn23)=N1` displayed a melting point of 190 to 193 °C.
Same read-out and setting: as for `CC1(C)N=C(c2cnc3ccc(O)cn23)c2cccc(F)c2C1(C)C`, the figure is 321 to 322 °C.
On the same count and under the same terms, to `CC1(C)N=C(c2cnc3c(Br)cccn23)c2cccc(F)c2C1Br` (centres unmarked) belongs 217 to 218 °C; to `CC1(C)Cc2c(Cl)cccc2C(c2cnc3ccc(F)cn23)=N1`, 142 to 143 °C.
As to `Cc1nc2c(C)cccn2c1C1=NC(C)(C)C(C)(C)c2c(F)cccc21` [Compound E-40, 1-(2,8-dimethylimidazo[1,2-a]pyridin-3-yl)-5-fluoro-3,3,4,4-tetramethyl-isoquinoline], the inhibition of growth at 20 ppm in data set [1] and in data set [2] was ≥ 80% in each case.
In the case of `COc1cccn2c(C3=NC(C)(C)C(C)(C)c4c(F)cccc43)cnc12` [Compound E-24, 5-fluoro-1-(8-methoxyimidazo[1,2-a]pyridin-3-yl)-3,3,4,4-tetramethyl-isoquinoline], the melting point was 130 °C. Besides, the inhibition of growth at 20 ppm in data set [1] was ≥ 80%. Besides, in data set [4], the inhibition of growth at 20 ppm was ≥ 80%. Also, the inhibition of growth at 20 ppm in data set [2] is ≥ 80%.
In turn, `Cc1cccc2ncc(C3=NC(C)(C)C(C)(C)c4c(F)cccc43)n12` [Compound E-30, 5-fluoro-3,3,4,4-tetramethyl-1-(5-methylimidazo[1,2-a]pyridin-3-yl)isoquinoline] came in with a melting point of 139 to 140 °C. Further, the inhibition of growth at 20 ppm in data set [1] was ≥ 80%. For the same molecule, the inhibition of growth at 20 ppm in data set [2] is ≥ 80%.
In the case of `CC1(C)N=C(c2cnc3ccc(F)cn23)c2cccc(F)c2C1(C)C`, the melting point was in the range of 200 to 202 °C.
Consider `CC1(C)N=C(c2cnc3cc(O)ccn23)c2cccc(F)c2C1(C)C` [Compound E-49, 3-(5-fluoro-3,3,4,4-tetramethyl-1-isoquinolyl)imidazo[1,2-a]pyridin-7-ol], for which the melting point lay in the range of 246 to 247 °C. Also, in data set [1], the inhibition of growth at 20 ppm was ≥ 80%. In data set [2], the inhibition of growth at 20 ppm was ≥ 80%.
`CSc1cccn2c(C3=NC(C)(C)Cc4c(F)cccc43)cnc12` [Compound E-17, 5-fluoro-3,3-dimethyl-1-(8-methylsulfanyl-imidazo[1,2-a]pyridin-3-yl)-4H-isoquinoline] came in with a melting point of 119 to 120 °C. Further, the inhibition of growth at 20 ppm in data set [2] is ≥ 80%.
The molecule `CC1(C)N=C(c2cnc3cc(C#N)ccn23)c2cccc(F)c2C1(C)C` [Compound E-46, 3-(5-fluoro-3,3,4,4-tetramethyl-1-isoquinolyl)imidazo[1,2-a]pyridine-7-carbonitrile] returned a melting point of 193 to 194 °C. Besides, the inhibition of growth at 20 ppm in data set [1] was ≥ 80%. Moreover, the inhibition of growth at 20 ppm in data set [2] was ≥ 80%.
`C#Cc1cccn2c(C3=NC(C)(C)C(C)(C)c4c(F)cccc43)cnc12` [Compound E-23, 1-(8-ethynylimidazo[1,2-a]pyridin-3-yl)-5-fluoro-3,3,4,4-tetramethyl-isoquinoline]: the melting point lay in the range of 169 to 170 °C. Besides, the inhibition of growth at 20 ppm in data set [1] is ≥ 80%.
Regarding `Cc1ccn2c(C3=NC(C)(C)C(C)(C)c4c(F)cccc43)cnc2c1Cl` [Compound E-47, 1-(8-chloro-7-methyl-imidazo[1,2-a]pyridin-3-yl)-5-fluoro-3,3,4,4-tetramethyl-isoquinoline], the melting point was 185 to 186 °C. The inhibition of growth at 20 ppm in data set [1] is ≥ 80%. The inhibition of growth at 20 ppm in data set [3] was ≥ 80%. Moreover, the inhibition of growth at 20 ppm in data set [2] was ≥ 80%.
Regarding `COc1ccn2c(C3=NC(C)(C)C(C)(C)c4c(F)cccc43)cnc2c1` [Compound E-48, 5-fluoro-1-(7-methoxyimidazo[1,2-a]pyridin-3-yl)-3,3,4,4-tetramethyl-isoquinoline], the melting point was in the range of 139 to 140 °C. Besides, the inhibition of growth at 20 ppm in data set [1] was ≥ 80%. For the same molecule, in data set [2], the inhibition of growth at 20 ppm is ≥ 80%.
`CC1(C)N=C(c2cnc3c(OC(F)F)cccn23)c2cccc(F)c2C1(C)C` [Compound E-7, 1-[8-(difluoromethoxy)imidazo [1,2-a]pyridin-3-yl]-5-fluoro-3,3,4,4-tetramethyl-isoquinoline] came in with a melting point of 121 to 122 °C. In data set [1], the inhibition of growth at 20 ppm is ≥ 80%. The inhibition of growth at 20 ppm in data set [2] was ≥ 80%.
The molecule `CC1(C)N=C(c2cnc3c(F)cccn23)c2cccc(F)c2C1Br` (centres unmarked) showed a melting point of 211 to 212 °C.
As for `CC1(C)N=C(c2cnc3c(F)cccn23)c2cccc(F)c2C1(F)F` [Compound E-19, 4,4,5-trifluoro-1-(8-fluoroimidazo[1,2-a]pyridin-3-yl)-3,3-dimethyl-isoquinoline], the melting point lay within 145 to 146 °C. Besides, the inhibition of growth at 20 ppm in data set [1] is ≥ 80%. Also, the inhibition of growth at 20 ppm in data set [2] was ≥ 80%.
For the molecule `Cc1cccn2ncc(C3=NC(C)(C)C(=O)c4c(F)cccc43)c12`, the melting point was 141 to 143 °C.
With `CC1(C)Cc2c(F)cccc2C(c2cnc3c(Br)cccn23)=N1` [Compound E-16, 1-(8-bromoimidazo[1,2-a]pyridin-3-yl)-5-fluoro-3,3-dimethyl-4H-isoquinoline], the melting point is 179 to 181 °C. The inhibition of growth at 20 ppm in data set [2] was ≥ 80%.
For `CC1(C)N=C(c2cnc3c(F)cccn23)c2cccc(Cl)c2C1Br` (centres unmarked), the melting point was in the range of 213 to 214 °C.
Take `CC1(C)Cc2c(Cl)cccc2C(c2cnc3c(OC(F)F)cccn23)=N1` [Compound E-15, 5-chloro-1-[8-(difluoromethoxy)imidazo [1,2-a]pyridin-3-yl]-3,3-dimethyl-4H-isoquinoline]: the melting point lay within 114 to 115 °C. Moreover, in data set [4], the inhibition of growth at 20 ppm is ≥ 80%.

Values taken from patent US10906897B2, “Microbiocidal heterobicyclic derivatives” (priority 2015, dated 2021).
